Consider nine molecules from ChEMBL document CHEMBL4342432, “Hydroxyl substituted benzoic acid/cinnamic acid derivatives: Tyrosinase inhibitory kinetics, anti-melanogenic activity and molecular docking studies” (Bioorg Med Chem Lett, 2020).

As a reminder, the IC50 is the concentration that inhibits the measured activity by half. The Ki is the equilibrium dissociation constant of an inhibitor or competing ligand from its target. A lower Ki goes with higher affinity.

Data set [1] deals with T1, Tyrosinase (Agaricus bisporus, UniProt O42713).
T1 sequence (O42713 whole entry): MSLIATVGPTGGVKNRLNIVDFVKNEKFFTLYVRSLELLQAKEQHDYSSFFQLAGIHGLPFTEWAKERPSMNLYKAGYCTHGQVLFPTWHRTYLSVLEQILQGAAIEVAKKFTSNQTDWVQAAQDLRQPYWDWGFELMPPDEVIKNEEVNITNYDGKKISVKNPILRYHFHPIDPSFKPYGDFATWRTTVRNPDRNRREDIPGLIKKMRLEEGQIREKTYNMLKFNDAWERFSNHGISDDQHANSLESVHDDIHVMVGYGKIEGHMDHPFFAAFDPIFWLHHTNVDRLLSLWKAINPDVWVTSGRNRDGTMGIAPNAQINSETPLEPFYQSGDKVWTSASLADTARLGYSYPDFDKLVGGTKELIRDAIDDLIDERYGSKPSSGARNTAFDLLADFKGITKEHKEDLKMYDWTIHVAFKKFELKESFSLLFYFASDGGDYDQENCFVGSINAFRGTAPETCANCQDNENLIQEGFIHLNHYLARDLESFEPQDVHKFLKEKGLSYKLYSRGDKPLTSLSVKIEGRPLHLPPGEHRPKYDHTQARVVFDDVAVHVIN
Kind of data set: Inhibition of mushroom tyrosinase assessed as reduction in dopachrome formation using L-DOPA as substrate preincubated for 10 mins followed by substrate addition and further incubated for 20 mins by microplate reader assay.

Data set [2] addresses T1, Tyrosinase.
A short description of data set [3]: Cytotoxicity against mouse B16F10 cells assessed as cell viability at 40 ug/ml incubated for 24 hrs by MTT assay relative to control. The data set is classed as cell-based, B16-F10. As to conditions: read-out: Activity. (Tetrazolium assays rely on reduction of a dye to a coloured formazan, in cell work by metabolically active cells.)
Data set [4] in a line: Cytotoxicity against mouse B16F10 cells assessed as cell viability at 30 ug/ml incubated for 24 hrs by MTT assay relative to control. The data set is classed as cell-based, B16-F10. As to conditions: read-out: Activity.
Data set [5] has as its system B16-F10. Kind of data set: Cytotoxicity against mouse B16F10 cells assessed as effect on cell morphology at 20 to 60 ug/ml incubated for 24 hrs by fluorescent inverted microscopy analysis. The data set is classed as cell-based. The conditions noted are these: b16-f10, 24 h.
Data set [6] addresses T2, Tyrosinase (Mus musculus) (UniProt P11344).
T2 sequence (whole entry): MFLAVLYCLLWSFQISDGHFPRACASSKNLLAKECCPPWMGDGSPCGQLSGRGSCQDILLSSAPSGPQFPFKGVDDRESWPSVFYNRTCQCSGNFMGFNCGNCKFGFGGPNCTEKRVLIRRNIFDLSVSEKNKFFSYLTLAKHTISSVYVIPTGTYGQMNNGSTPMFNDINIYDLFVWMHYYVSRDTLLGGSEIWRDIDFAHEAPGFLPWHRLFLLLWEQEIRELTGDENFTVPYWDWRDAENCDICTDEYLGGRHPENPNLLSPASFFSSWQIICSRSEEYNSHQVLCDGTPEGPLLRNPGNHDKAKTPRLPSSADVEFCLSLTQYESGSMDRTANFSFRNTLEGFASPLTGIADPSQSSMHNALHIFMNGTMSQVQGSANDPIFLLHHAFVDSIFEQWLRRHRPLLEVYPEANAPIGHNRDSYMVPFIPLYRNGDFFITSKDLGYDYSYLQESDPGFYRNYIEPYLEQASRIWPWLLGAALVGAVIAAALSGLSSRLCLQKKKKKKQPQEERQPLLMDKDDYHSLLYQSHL
Kind of data set: Inhibition of tyrosinase in mouse B16F10 cells assessed as alpha-MSH-stimulated melanogenesis measured as melanin content at 25 to 30 ug/ml measured after 24 hrs in presence of alpha-MSH by microplate reader analysis. The data set is classed as cell-based.

Data set [7] concerns the target T2, Tyrosinase (Mus musculus). Put plainly: Inhibition of tyrosinase in mouse B16F10 cells assessed as transformation of L-DOPA into dopachrome measured after 24 hrs by microplate reader analysis. The data set is classed as cell-based.

Calls of active or inactive are those of the source. The calls are words filed in the database; no cut-off is given here. Where only a bound is given, the exact number is not on record here.

Regarding `COc1cccc(OC(=O)COC(=O)/C=C/c2ccccc2)c1`, the IC50 in data set [1] came out at 39.4 µM. On the same count and under the same terms, under `COc1cccc(OC(=O)COC(=O)c2cc(O)cc(O)c2)c1` stands 193 µM; under `O=C(/C=C/c1ccc(O)cc1)OCC(=O)Oc1ccc2ccc(=O)oc2c1`, 124 µM; under `COc1cccc(OC(=O)COC(=O)c2cccc(O)c2)c1`, 315 µM. `COc1cccc(OC(=O)COC(=O)c2ccc(O)cc2O)c1`: in data set [1], the IC50 turned out to be 23.8 µM. In data set [2], this molecule gave a Ki of 130 µM.

As to `COc1cccc(OC(=O)COC(=O)c2ccc(O)c(O)c2)c1`, the IC50 in data set [1] amounted to 299 µM.

With `COc1cccc(OC(=O)COC(=O)c2ccc(O)cc2)c1`, the half-inhibitory concentration (IC50) in data set [1] was 338 µM. For the molecule `COc1cccc(OC(=O)COC(=O)/C=C/c2ccc(O)cc2)c1`, in data set [1], the IC50 came to 5.7 µM. In addition, the viability at 24 h, 40 ug/ml in data set [3] was greater than 95%. Also, in data set [4], the viability at 24 h, 30 ug/ml is greater than 99%. For the same molecule, the Activity entry in data set [5] is listed as “Non-Toxic”. In data set [6], the inhibition entry is “Active”. Besides, the inhibition entry in data set [7] is “Dose-dependent effect”. This molecule had a Ki in data set [2] of 11 µM. Regarding `COc1cccc(OC(=O)COC(=O)/C=C/c2ccccc2O)c1`, in data set [1], the IC50 came to 173 µM.
